The text below walks through data of paper PMC10726357, “New Genetically Engineered Derivatives of Antibacterial Darobactins Underpin Their Potential for Antibiotic Development” (Journal of Medicinal Chemistry, 2023).

One data set deals with K. pneumoniae DSM-30104. It is filed as cell-based, Klebsiella pneumoniae. The procedure: (§1) The antibacterial activity of novel darobactins was determined by the evaluation of the minimum inhibitory concentration (MIC) as previously described for crude extracts and for pure darobactin analogues.[12]
Another data set relates to A. baumannii DSM-30008. It is filed as cell-based, Acinetobacter baumannii. The method, then: as §1
For data set [1], the target named is T1, EcBamA (E. coli BamA barrel domain) (Escherichia coli, UniProt P0A940, C690S/C700S).
T1 construct: The E. coli BamA barrel domain (BamA-β) (residues 421–810, C690S, C700S); made in house
Kind of data set: Microscale thermophoresis (MST) KD determination. Format: binding. The method, then:
As an alternative to the previously published methods using isothermal titration calorimetry (ITC), we established a KD determination assay using microscale thermophoresis (MST) to enable higher throughput.
Microscale thermophoresis (MST) (serial no. 201709-BR-N024, Monolith NT.115 Micro Scale Thermophoresis, NanoTemper Technologies GmbH) was performed according to the standard protocol from the manufacturer NanoTemper Technologies GmbH using a Monolith His-Tag Labeling Kit RED-tris-NTA second-generation kit. The buffer used was HEPES (50 mM), pH 7.6, MgCl2 (5 mM), and Tween (0.05%). […] A 1:1 dilution of the ligand over 16 samples was performed using a stock of ligand (in water) diluted in HEPES buffer. Nonhydrophobic capillary tubes were used. A pretest to check for the labeling and compound fluorescence was performed for every sample followed by a binding affinity (KD) determination. Each sample was measured after 15 min of incubation at RT and analyzed in MO Control version 1.6.
Background: In MST a laser heats a spot of the sample, and binding alters the fluorescence response.

A further data set deals with P. aeruginosa PA01. Format: cell-based, Pseudomonas aeruginosa. The procedure: as §1
A further data set relates to E. coli ATCC25922. It is filed as cell-based, Escherichia coli. The procedure: as §1
For data set [2] the following is noted: rat (Wistar) plasma; 1 μM.
Description: (§2) To determine stability in plasma, the compound (1 μM) was incubated with pooled CD-1 mouse, Wistar rat, or human plasma (Neo Biotech, Nanterre, France). […] Samples were stored on ice until the end of the incubation, and precipitated protein was removed by centrifugation (15 min, 4 °C, 4000g, and 2 centrifugation steps). The concentration of the remaining test compound at the different time points was analyzed by HPLC-MS/MS (TSQ Quantum Access MAX, Thermo Fisher, Dreieich, Germany). The plasma stability of procaine, propantheline, and diltiazem was determined in parallel to confirm the enzymatic activity.
A further data set concerns A. baumannii ATCC 17978. Format: cell-based, Acinetobacter baumannii. The method, then: as §1
For the next data set, the system named is A. baumannii NCTC 13301. Format: cell-based, Acinetobacter baumannii. The method, then: as §1
For data set [3], the system named is Acinetobacter baumannii DSM-30007. It is filed as cell-based. The procedure: as §1
For data set [4], the system named is P. aeruginosa 84389 (MDR clinical isolate). Kind of data set: microbe, parasite or virus in culture. The method, then: as §1
In data set [5] the test system is P. aeruginosa 83979 (MDR clinical isolate). Briefly: microbe, parasite or virus in culture. Particulars: for MIC: Pseudomonas aeruginosa. The procedure:
as §1

Data set [6] deals with P. aeruginosa PA14 DSM 19882. Format: cell-based, Pseudomonas aeruginosa. The procedure:
as §1

For data set [7] the following is noted: human plasma; 1 μM.
Description: as §2
The conditions of data set [8]: for liver microsomes Clint / liver microsomes t1/2: 1 μM; for liver microsomes t1/2: 120 min incubation. The method, then: The metabolic stability of testosterone, verapamil, and ketoconazole was determined in parallel to confirm the enzymatic activity of mouse/rat liver microsomes; for human liver microsomes, testosterone, diclofenac, and propranolol were used. Incubation was stopped after defined time points by precipitation of aliquots of enzymes with 2 volumes of cold acetonitrile containing an internal standard (15 nM diphenhydramine). Samples were stored on ice until the end of the incubation, and precipitated protein was removed by centrifugation (15 min, 4 °C, and 4000g). The concentration of the remaining test compound at the different time points was analyzed by HPLC-MS/MS (TSQ Altis Plus, Thermo Fisher, Dreieich, Germany) and used to determine the half-life (t1/2).
In general terms: Liver microsomes are a subcellular fraction often used to study metabolism.

The next data set relates to Gram-negative bacteria. Particulars: result in words; cited from earlier work.

In brackets after ≈: the same amount, converted by molar mass. Where two headings read alike, the source gives them in different places.

On to `C[C@@H](O)[C@@H]1NC(=O)[C@H]2NC(=O)[C@H](CCC(=O)O)NC(=O)[C@@H](N)Cc3c[nH]c4c(cccc34)O[C@@H]2c2c[nH]c3cc(ccc23)[C@H](CCCN)[C@@H](C(=O)N[C@@H](CCCNC(=N)N)C(=O)N[C@@H](Cc2c[nH]c3ccccc23)C(=O)O)NC1=O` [D58], for which the “IC50 HepG2” value in the data set on HepG2 (cytotoxicity, n = 2) is > 37 µg/mL. The “MIC K. pneumoniae [DSM-30104]” value in the data set with K. pneumoniae DSM-30104 (pure compound, n = 2, Table 2) was 16 µg/mL (≈ 14.5 µM). Moreover, the “MIC A. baumannii [DSM-30008]” value with A. baumannii DSM-30008 (pure compound, n = 2, Table 2) is 2 µg/mL (≈ 1.81 µM). For the same compound, in [1], the Kd – broadly, the concentration at which binding is half-saturated – is 5.1 ± 3.7 µM. For the same compound, the “MIC P. aeruginosa [PA01]” value against P. aeruginosa PA01 (pure compound, n = 2, Table 2) stood at 8 µg/mL (≈ 7.25 µM). In the data set with E. coli ATCC25922 (pure compound, n = 2, Table 2), the “MIC E. coli [ATCC25922]” value came out at 8 µg/mL (≈ 7.25 µM).

For `C[C@@H](O)[C@@H]1NC(=O)[C@H]2NC(=O)[C@H](CCC(N)=O)NC(=O)[C@@H](N)Cc3c[nH]c4c(cccc34)O[C@@H]2c2c[nH]c3cc(ccc23)[C@H](CCCN)[C@@H](C(=O)N[C@@H](CCCNC(=N)N)C(=O)N[C@@H](Cc2c[nH]c3ccccc23)C(=O)O)NC1=O` [D61], the “IC50 HepG2” value in the data set with HepG2 (cytotoxicity, n = 2) is > 37 µg/mL. Also, the “MIC K. pneumoniae [DSM-30104]” value against K. pneumoniae DSM-30104 (pure compound, n = 2, Table 2) was 8 µg/mL (≈ 7.26 µM). The “MIC A. baumannii [DSM-30008]” value against A. baumannii DSM-30008 (pure compound, n = 2, Table 2) worked out at 0.5 µg/mL (≈ 0.454 µM). Also, the Kd in data set [1] is 3.6 ± 0.6 µM. Moreover, the “MIC P. aeruginosa [PA01]” value against P. aeruginosa PA01 (pure compound, n = 2, Table 2) came out at 4 µg/mL (≈ 3.63 µM). The “MIC E. coli [ATCC25922]” value in the data set with E. coli ATCC25922 (pure compound, n = 2, Table 2) stood at 2 µg/mL (≈ 1.81 µM).

Consider `C[C@@H](O)[C@@H]1NC(=O)[C@H]2NC(=O)[C@H](CO)NC(=O)[C@@H](N)Cc3c[nH]c4c(cccc34)O[C@@H]2c2c[nH]c3cc(ccc23)[C@H](CCCN)[C@@H](C(=O)N[C@@H](CCCNC(=N)N)C(=O)N[C@@H](Cc2c[nH]c3ccccc23)C(=O)O)NC1=O` [D64], for which the “IC50 HepG2” value in the data set on HepG2 is > 37 µg/mL. In addition, the “MIC K. pneumoniae [DSM-30104]” value with K. pneumoniae DSM-30104 (DSM-30104) is 16 µg/mL (≈ 15.1 µM). For the same compound, in the data set on A. baumannii DSM-30008 (DSM-30008), the “MIC A. baumannii [DSM-30008]” value is 0.5 µg/mL (≈ 0.471 µM). This compound also returned a Kd in data set [1] of 5.1 ± 0.7 µM. The “MIC P. aeruginosa [PA01]” value in the data set with P. aeruginosa PA01 stood at 2 µg/mL (≈ 1.88 µM). Also, in the data set on E. coli ATCC25922 (ATCC25922), the “MIC E. coli [ATCC25922]” value is 4 µg/mL (≈ 3.77 µM).

`N=C(N)NCCC[C@H](NC(=O)[C@H]1NC(=O)[C@H](CO)NC(=O)[C@H]2NC(=O)[C@H](CCC(N)=O)NC(=O)[C@@H](N)Cc3c[nH]c4c(cccc34)O[C@@H]2c2c[nH]c3cc(ccc23)[C@@H]1CCCN)C(=O)N[C@@H](Cc1c[nH]c2ccccc12)C(=O)O` [D69, darobactin 69]: in the data set on HepG2, the “IC50 HepG2” value was > 37 µg/mL. Besides, the “MIC K. pneumoniae [DSM-30104]” value in the data set with K. pneumoniae DSM-30104 (DSM-30104) was 4 µg/mL (≈ 3.68 µM). The “plasma t1/2” value in [2] is >4 h; the “plasma t1/2” value (mouse CD-1 plasma, 1 μM) was >4 h; the “plasma t1/2” value in data set [7] is >4 h. In addition, in the data set on A. baumannii DSM-30008 (DSM-30008), the “MIC A. baumannii DSM-30008” value amounted to 0.5 μg mL^–1. Also, in the data set with A. baumannii DSM-30008 (DSM-30008), the “MIC A. baumannii [DSM-30008]” value came to 0.5 µg/mL (≈ 0.459 µM). Besides, the “MIC A. baumannii ATCC 17978” value in the data set with A. baumannii ATCC 17978 is 16 μg mL^–1. For the same compound, the “MIC A. baumannii NCTC 13301” value against A. baumannii NCTC 13301 is listed as 8–16 μg mL^–1. Further, in [3], the “MIC Acinetobacter baumannii DSM-30007” value is 2 μg mL^–1. Further, where the note is “over 4 h”, the “plasma stability (degradation)” value was “no degradation”. In [1], this compound gave a Kd of 1.4 ± 0.4 µM. Further, the “MIC P. aeruginosa 84389” value in [4] (84389 (MDR clinical isolate)) is given as 16–32 μg mL^–1. For the same compound, the “MIC P. aeruginosa 83979” value in data set [5] (83979 (MDR clinical isolate)) is 8–16 μg mL^–1. Further, the “MIC P. aeruginosa PA14 DSM 19882” value in [6] was found to be 16 μg mL^–1. Moreover, the “MIC P. aeruginosa [PA01]” value in the data set on P. aeruginosa PA01 was found to be 1 µg/mL (≈ 0.919 µM). In the data set on P. aeruginosa PA01, the “MIC Pseudomonas aeruginosa PA01 DSM 22644” value was 1 μg mL^–1. Also, in the data set on E. coli ATCC25922 (ATCC25922), the “MIC E. coli [ATCC25922]” value stood at 1 µg/mL (≈ 0.919 µM). Moreover, the “liver microsomes Clint” value in data set [8] (human), in data set [8] (mouse C57BL/6) and in data set [8] (rat (Wistar)) was < 11.6 µL/min/mg throughout. The “liver microsomes t1/2” value in data set [8] (human), in [8] (mouse C57BL/6) and in data set [8] (rat (Wistar)) was > 2 h throughout. Also, the “metabolism in murine liver microsomes” value in data set [8] (over 2 h) is given as “not metabolized”.

Consider `N=C(N)NCC[C@H]1c2ccc3c(c[nH]c3c2)[C@H]2Oc3cccc4c(c[nH]c34)C[C@H](N)C(=O)N[C@@H](CC(N)=O)C(=O)N[C@@H]2C(=O)N[C@@H](CO)C(=O)N[C@@H]1C(=O)N[C@@H](CO)C(=O)N[C@@H](Cc1ccccc1)C(=O)O` [DD, darobactin D, reference compound], for which the “MIC K. pneumoniae [DSM-30104]” value in the data set on K. pneumoniae DSM-30104 (DSM-30104) lay in the range of 8 to 16 µg/mL. For the same compound, the “MIC A. baumannii [DSM-30008]” value in the data set on A. baumannii DSM-30008 (DSM-30008) was in the range of 4 to 8 µg/mL. For the same compound, the “MIC P. aeruginosa [PA01]” value against P. aeruginosa PA01 stood at 2 µg/mL (≈ 2.01 µM). For the same compound, the “MIC E. coli [ATCC25922]” value against E. coli ATCC25922 (ATCC25922) stood at 1 µg/mL (≈ 1.01 µM). Moreover, the published antibacterial activity result in the data set with Gram-negative bacteria is “inactive”.

As for `C[C@@H](O)[C@H]1C(=O)N2C(C(=O)O)=C(S[C@@H]3CN[C@H](C(=O)N(C)C)C3)[C@H](C)[C@H]12` [meropenem], the MIC in [4] (Pseudomonas aeruginosa, read-out: MIC P. aeruginosa 84389) is 16 µg/mL (≈ 41.7 µM); in [5] (BAL, read-out: resistance profile, MIC, P. aeroginosa 83979), > 16 µg/mL; in data set [5] (read-out: MIC P. aeruginosa 83979), 16 µg/mL (≈ 41.7 µM).

Regarding “darobactin E (WSWSKSF) [DE, native darobactin analogue, core peptide WSWSKSF]”, the published antibacterial activity entry in the data set on Gram-negative bacteria is “rather inactive”.
